Experimental data from PMC5218480 (PLoS ONE, 2017).

System: MV-4-11 cells
Test: Gene expression microarray analysis (Affymetrix PrimeView) and GSEA
Type: cell-based, human
Parameters: RFU PODN (11730768_x_at) / Fold change /veh PODN (11730768_x_at) / RFU LINC00158 (11744669_a_at) / Fold change /veh LINC00158 (11744669_a_at) / RFU DUSP10 (11751237_a_at) / Fold change /veh DUSP10 (11751237_a_at) / RFU ID3 (11757404_x_at) / Fold change /veh ID3 (11757404_x_at) / RFU PLEKHG5 (11737974_s_at) / Fold change /veh PLEKHG5 (11737974_s_at) / RFU LRRC4B (11730491_at) / Fold change /veh LRRC4B (11730491_at) / RFU GIMAP4 (11747438_a_at) / Fold change /veh GIMAP4 (11747438_a_at) / RFU KRT8 (11758183_x_at) / Fold change /veh KRT8 (11758183_x_at) / RFU CNN1 (11734310_a_at) / Fold change /veh CNN1 (11734310_a_at) / RFU VPS37D (11726825_at) / Fold change /veh VPS37D (11726825_at) / RFU C10orf10 (11716522_x_at) / Fold change /veh C10orf10 (11716522_x_at) / RFU KIR2DL2 /// KIR2DL4 /// KIR2DL5A /// KIR2DL5B /// KIR2DS1 /// KIR2DS2 /// KIR2DS3 /// KIR2DS4 /// KIR3DL3 /// KIR3DL3 /// KIR3DS1 (11738374_at) / Fold change /veh KIR2DL2 /// KIR2DL4 /// KIR2DL5A /// KIR2DL5B /// KIR2DS1 /// KIR2DS2 /// KIR2DS3 /// KIR2DS4 /// KIR3DL3 /// KIR3DL3 /// KIR3DS1 (11738374_at) / RFU C1QL1 (11718748_at) / Fold change /veh C1QL1 (11718748_at) / RFU TMPRSS4 (11747572_a_at) / Fold change /veh TMPRSS4 (11747572_a_at) / RFU HAMP (11756126_x_at) / Fold change /veh HAMP (11756126_x_at) / RFU RNFT2 (11725882_a_at) / Fold change /veh RNFT2 (11725882_a_at) / RFU NR4A2 (11747474_a_at) / Fold change /veh NR4A2 (11747474_a_at) / RFU ABCC12 (11746883_a_at) / Fold change /veh ABCC12 (11746883_a_at) / RFU TMEM136 (11760407_x_at) / Fold change /veh TMEM136 (11760407_x_at) / RFU CLDN22 /// WWC2 (11732394_at) / Fold change /veh CLDN22 /// WWC2 (11732394_at) / RFU HLA-DPB1 (11760878_x_at) / Fold change /veh HLA-DPB1 (11760878_x_at) / RFU SPINT1 (11716480_a_at) / Fold change /veh SPINT1 (11716480_a_at) / RFU GAP43 (11754022_s_at) / Fold change /veh GAP43 (11754022_s_at) / RFU A4GNT (11735810_at) / Fold change /veh A4GNT (11735810_at) / RFU PRB3 (11715151_x_at) / Fold change /veh PRB3 (11715151_x_at) / RFU TUBB4B (11761932_at) / Fold change /veh TUBB4B (11761932_at) / RFU CAPN14 (11732068_a_at) / Fold change /veh CAPN14 (11732068_a_at) / RFU TMCC2 (11721928_a_at) / Fold change /veh TMCC2 (11721928_a_at) / RFU IRGQ (11745062_a_at) / Fold change /veh IRGQ (11745062_a_at) / RFU FAM174B (11720279_a_at) / Fold change /veh FAM174B (11720279_a_at) / RFU TMPRSS4 (11748680_a_at) / Fold change /veh TMPRSS4 (11748680_a_at) / RFU FAM212B (11763350_a_at) / Fold change /veh FAM212B (11763350_a_at) / RFU PLEKHG5 (11743358_a_at) / Fold change /veh PLEKHG5 (11743358_a_at) / RFU ZSCAN30 (11745921_a_at) / Fold change /veh ZSCAN30 (11745921_a_at) / RFU CMKLR1 (11741424_a_at) / Fold change /veh CMKLR1 (11741424_a_at) / RFU LOC101060620 /// MAPK8IP1 (11723275_at) / Fold change /veh LOC101060620 /// MAPK8IP1 (11723275_at) / RFU SPTSSB (11747773_x_at) / Fold change /veh SPTSSB (11747773_x_at) / RFU PRSS12 (11739890_at) / Fold change /veh PRSS12 (11739890_at) / RFU BIN1 (11741810_x_at) / Fold change /veh BIN1 (11741810_x_at) / RFU WNT11 (11732464_a_at) / Fold change /veh WNT11 (11732464_a_at) / RFU C10orf10 (11716521_a_at) / Fold change /veh C10orf10 (11716521_a_at) / RFU C5orf56 (11738089_at) / Fold change /veh C5orf56 (11738089_at) / RFU CYB561 (11721691_x_at) / Fold change /veh CYB561 (11721691_x_at) / RFU ANKRD19P (11752326_a_at) / Fold change /veh ANKRD19P (11752326_a_at) / RFU OR2T12 /// OR2T33 /// OR2T8 (11738714_s_at) / Fold change /veh OR2T12 /// OR2T33 /// OR2T8 (11738714_s_at) / RFU VCAN (11748164_a_at) / Fold change /veh VCAN (11748164_a_at) / RFU JSRP1 (11732532_at) / Fold change /veh JSRP1 (11732532_at) / RFU KRTAP10-11 (11738290_x_at) / Fold change /veh KRTAP10-11 (11738290_x_at) / RFU MYO3A (11730013_a_at) / Fold change /veh MYO3A (11730013_a_at) / RFU EBF3 (11725865_a_at) / Fold change /veh EBF3 (11725865_a_at) / RFU CAMK2N1 (11719241_x_at) / Fold change /veh CAMK2N1 (11719241_x_at) / RFU C5orf56 (11738088_a_at) / Fold change /veh C5orf56 (11738088_a_at) / RFU OLFML3 (11715873_a_at) / Fold change /veh OLFML3 (11715873_a_at) / RFU LOC100653217 /// NTM (11731650_a_at) / Fold change /veh LOC100653217 /// NTM (11731650_a_at) / RFU MAPK11 (11762145_a_at) / Fold change /veh MAPK11 (11762145_a_at) / RFU FIZ1 (11724087_x_at) / Fold change /veh FIZ1 (11724087_x_at) / RFU OASL (11726364_x_at) / Fold change /veh OASL (11726364_x_at) / RFU SOX15 (11748057_x_at) / Fold change /veh SOX15 (11748057_x_at) / RFU CD79A (11719716_a_at) / Fold change /veh CD79A (11719716_a_at) / RFU HIST1H1D (11736915_at) / Fold change /veh HIST1H1D (11736915_at) / RFU CASKIN2 (11723855_a_at) / Fold change /veh CASKIN2 (11723855_a_at) / RFU LOC730098 (11760151_x_at) / Fold change /veh LOC730098 (11760151_x_at) / RFU OR4N2 (11742367_at) / Fold change /veh OR4N2 (11742367_at) / RFU PRRT2 (11749266_a_at) / Fold change /veh PRRT2 (11749266_a_at) / RFU SNX32 (11753110_a_at) / Fold change /veh SNX32 (11753110_a_at) / RFU CDHR5 (11726645_a_at) / Fold change /veh CDHR5 (11726645_a_at) / RFU RCAN1 (11760418_a_at) / Fold change /veh RCAN1 (11760418_a_at) / RFU FAM167A (11723789_a_at) / Fold change /veh FAM167A (11723789_a_at) / RFU FAM26E (11764081_at) / Fold change /veh FAM26E (11764081_at) / RFU ISYNA1 (11749810_s_at) / Fold change /veh ISYNA1 (11749810_s_at) / RFU ACY1 (11761880_at) / Fold change /veh ACY1 (11761880_at) / RFU 11764098_at / Fold change /veh 11764098_at / RFU SAMD14 (11745864_x_at) / Fold change /veh SAMD14 (11745864_x_at) / RFU NPB (11741838_a_at) / Fold change /veh NPB (11741838_a_at) / RFU TMPRSS6 (11731388_a_at) / Fold change /veh TMPRSS6 (11731388_a_at) / RFU KRTAP10-2 (11738614_at) / Fold change /veh KRTAP10-2 (11738614_at) / RFU ARHGAP8 /// PRR5-ARHGAP8 (11727945_x_at) / Fold change /veh ARHGAP8 /// PRR5-ARHGAP8 (11727945_x_at) / RFU KRTAP5-7 /// NADSYN1 (11734609_at) / Fold change /veh KRTAP5-7 /// NADSYN1 (11734609_at) / RFU RASL12 (11751679_a_at) / Fold change /veh RASL12 (11751679_a_at) / RFU CDKN2B (11736163_a_at) / Fold change /veh CDKN2B (11736163_a_at) / RFU PRF1 (11729649_at) / Fold change /veh PRF1 (11729649_at) / RFU, ZNF638 /// ZNF638-IT1 / Fold change vs veh, ZNF638 /// ZNF638-IT1 / RFU, PANK3 / Fold change vs veh, PANK3 / RFU, SH3YL1 / Fold change vs veh, SH3YL1 / RFU, ZEB2 / Fold change vs veh, ZEB2 / RFU, NRIP1 / Fold change vs veh, NRIP1 / RFU, PTTG1IP / Fold change vs veh, PTTG1IP / RFU, CAPN2 / Fold change vs veh, CAPN2 / RFU, MED14 / Fold change vs veh, MED14 / RFU, SNORA58 / Fold change vs veh, SNORA58 / RFU, C1orf63 / Fold change vs veh, C1orf63 / RFU, LRRFIP1 / Fold change vs veh, LRRFIP1 / RFU, NDUFAF7 / Fold change vs veh, NDUFAF7 / RFU, SLC12A2 / Fold change vs veh, SLC12A2 / RFU, IBTK / Fold change vs veh, IBTK / RFU, ESF1 / Fold change vs veh, ESF1 / Fold change vs veh, TMEM50B / RFU, TAOK1 / Fold change vs veh, TAOK1 / RFU, ACBD3 / Fold change vs veh, ACBD3 / RFU, TMA16 / Fold change vs veh, TMA16 / RFU, RWDD3 / Fold change vs veh, RWDD3 / RFU, BCAT1 / Fold change vs veh, BCAT1 / RFU, EDEM3 / Fold change vs veh, EDEM3 / RFU, TMEM33 / Fold change vs veh, TMEM33 / RFU, WDR75 / Fold change vs veh, WDR75 / RFU, AHCTF1 / Fold change vs veh, AHCTF1 / RFU, TFRC / Fold change vs veh, TFRC / RFU, ZDHHC17 / Fold change vs veh, ZDHHC17 / RFU, NOM1 / Fold change vs veh, NOM1 / RFU, ARL8B / Fold change vs veh, ARL8B / RFU, ZBTB11 / Fold change vs veh, ZBTB11 / RFU, TAMM41 / Fold change vs veh, TAMM41 / RFU, KIAA1704 /// LOC100996395 / Fold change vs veh, KIAA1704 /// LOC100996395 / RFU, ING1 / Fold change vs veh, ING1 / RFU, TRMT61B / Fold change vs veh, TRMT61B / RFU, FUBP3 / Fold change vs veh, FUBP3 / RFU, TP53 / Fold change vs veh, TP53 / RFU, TNKS2 / Fold change vs veh, TNKS2 / RFU, ZFP14 / Fold change vs veh, ZFP14 / RFU, ACTR2 / Fold change vs veh, ACTR2 / RFU, PPP3R1 / Fold change vs veh, PPP3R1 / RFU, PIK3R1 / Fold change vs veh, PIK3R1 / RFU, HNRNPA1 / Fold change vs veh, HNRNPA1 / RFU, RNF170 / Fold change vs veh, RNF170 / RFU, ZNF28 / Fold change vs veh, ZNF28 / RFU, RNGTT / Fold change vs veh, RNGTT / RFU, OGT / Fold change vs veh, OGT / RFU, BRD1 / Fold change vs veh, BRD1 / RFU, MARS / Fold change vs veh, MARS / RFU, ZNF655 / Fold change vs veh, ZNF655 / RFU, FAHD1 / Fold change vs veh, FAHD1 / RFU, BDP1 / Fold change vs veh, BDP1 / RFU, LRRCC1 / Fold change vs veh, LRRCC1 / RFU, ARID1A / Fold change vs veh, ARID1A / RFU, ZNF146 / Fold change vs veh, ZNF146 / RFU, ZNF330 / Fold change vs veh, ZNF330 / RFU, GPN3 / Fold change vs veh, GPN3 / RFU, C9orf123 / Fold change vs veh, C9orf123 / RFU, N4BP2L2 / Fold change vs veh, N4BP2L2 / RFU, ARFIP1 / Fold change vs veh, ARFIP1 / RFU, FAM179B / Fold change vs veh, FAM179B / RFU, BCL10 / Fold change vs veh, BCL10 / RFU, UHRF1BP1L / Fold change vs veh, UHRF1BP1L / RFU, BET1 / Fold change vs veh, BET1 / RFU, CNOT2 / Fold change vs veh, CNOT2 / RFU, ZNF268 / Fold change vs veh, ZNF268 / Fold change vs veh, ZNF507 / RFU, DGCR2 / Fold change vs veh, DGCR2 / RFU, WDSUB1 / Fold change vs veh, WDSUB1 / Fold change vs veh, HSP90B1 /// MIR3652 / RFU, ADSS / Fold change vs veh, ADSS / RFU, GK / Fold change vs veh, GK / RFU, ZNF148 / Fold change vs veh, ZNF148 / RFU, TAF9 / Fold change vs veh, TAF9 / RFU, SLC1A5 / Fold change vs veh, SLC1A5 / RFU, SLMO2 / Fold change vs veh, SLMO2 / RFU, ABCC4 / Fold change vs veh, ABCC4 / RFU, LOC101060439 /// RAP1B / Fold change vs veh, LOC101060439 /// RAP1B / RFU, RFX7 / Fold change vs veh, RFX7 / RFU, GTPBP10 / Fold change vs veh, GTPBP10 / RFU, CNEP1R1 / Fold change vs veh, CNEP1R1 / RFU, BIVM-ERCC5 /// ERCC5 / Fold change vs veh, BIVM-ERCC5 /// ERCC5 / RFU, ILF3 / Fold change vs veh, ILF3 / RFU 11762660_at / Fold change /veh 11762660_at / RFU VCAN (11757783_s_at) / Fold change /veh VCAN (11757783_s_at) / RFU DDX43 (11728927_at) / Fold change /veh DDX43 (11728927_at) / RFU KRT8 (11758188_x_at) / Fold change /veh KRT8 (11758188_x_at) / RFU NKD1 (11759106_at) / Fold change /veh NKD1 (11759106_at) / RFU SRD5A1 (11742802_a_at) / Fold change /veh SRD5A1 (11742802_a_at) / RFU TPSAB1 /// TPSB2 (11721975_s_at) / Fold change /veh TPSAB1 /// TPSB2 (11721975_s_at) / RFU GSTM3 (11746129_a_at) / Fold change /veh GSTM3 (11746129_a_at) / RFU IL23R (11737362_x_at) / Fold change /veh IL23R (11737362_x_at) / RFU TMEM51 (11727254_a_at) / Fold change /veh TMEM51 (11727254_a_at) / RFU PIWIL2 (11732686_x_at) / Fold change /veh PIWIL2 (11732686_x_at) / RFU ORM1 (11744905_x_at) / Fold change /veh ORM1 (11744905_x_at) / RFU CCDC152 (11743942_at) / Fold change /veh CCDC152 (11743942_at) / RFU ECM1 (11717891_a_at) / Fold change /veh ECM1 (11717891_a_at) / RFU IL23R (11748794_a_at) / Fold change /veh IL23R (11748794_a_at) / RFU TNFAIP8L3 (11732012_x_at) / Fold change /veh TNFAIP8L3 (11732012_x_at) / RFU MBOAT4 (11741988_at) / Fold change /veh MBOAT4 (11741988_at) / RFU 11764193_at / Fold change /veh 11764193_at / RFU TMEM53 (11763286_at) / Fold change /veh TMEM53 (11763286_at) / RFU MAGEB2 (11727129_at) / Fold change /veh MAGEB2 (11727129_at) / RFU TMEM200A (11744735_a_at) / Fold change /veh TMEM200A (11744735_a_at) / RFU CCDC152 (11751479_a_at) / Fold change /veh CCDC152 (11751479_a_at) / RFU FAM211A (11726209_a_at) / Fold change /veh FAM211A (11726209_a_at) / RFU RGS16 (11746705_a_at) / Fold change /veh RGS16 (11746705_a_at) / RFU VCAN (11755009_s_at) / Fold change /veh VCAN (11755009_s_at) / RFU RHOB (11743442_s_at) / Fold change /veh RHOB (11743442_s_at) / RFU RGS16 (11720943_a_at) / Fold change /veh RGS16 (11720943_a_at) / RFU RGS16 (11720944_at) / Fold change /veh RGS16 (11720944_at) / RFU, VPS4B / Fold change vs veh, VPS4B / RFU, CREB1 / Fold change vs veh, CREB1 / RFU, DNAJC13 / Fold change vs veh, DNAJC13 / RFU, GNAQ / Fold change vs veh, GNAQ / RFU, CDK5R1 / Fold change vs veh, CDK5R1 / RFU, ZRANB3 / Fold change vs veh, ZRANB3 / RFU, CUL4A / Fold change vs veh, CUL4A / RFU, CCNY / Fold change vs veh, CCNY / RFU, UFL1 / Fold change vs veh, UFL1 / RFU, COG3 / Fold change vs veh, COG3 / RFU, DIAPH2 / Fold change vs veh, DIAPH2 / RFU, SKA2 / Fold change vs veh, SKA2 / RFU, AFF3 / Fold change vs veh, AFF3 / RFU, LMF1 / Fold change vs veh, LMF1 / RFU, IPO11 / Fold change vs veh, IPO11 / RFU, DFFB / Fold change vs veh, DFFB / RFU, FOXP1 / Fold change vs veh, FOXP1 / RFU, CARD8 / Fold change vs veh, CARD8 / RFU, STRN3 / Fold change vs veh, STRN3 / RFU, ADK / Fold change vs veh, ADK / RFU, RASSF2 / Fold change vs veh, RASSF2 / RFU, WIPF1 / Fold change vs veh, WIPF1 / RFU, LARP1B / Fold change vs veh, LARP1B / RFU, RASA1 / Fold change vs veh, RASA1 / RFU, RB1 / Fold change vs veh, RB1 / RFU, PPFIA1 / Fold change vs veh, PPFIA1 / RFU, MAT2A / Fold change vs veh, MAT2A / RFU, CCT5 / Fold change vs veh, CCT5 / RFU, WDR92 / Fold change vs veh, WDR92 / RFU, CUX1 / Fold change vs veh, CUX1 / RFU, TTC7A / Fold change vs veh, TTC7A / RFU, TMEM135 / Fold change vs veh, TMEM135 / RFU, DEPTOR / Fold change vs veh, DEPTOR / RFU, CPM / Fold change vs veh, CPM / RFU, DNAJB6 / Fold change vs veh, DNAJB6 / RFU, CACNA2D3 / Fold change vs veh, CACNA2D3 / RFU, DTX4 / Fold change vs veh, DTX4 / RFU, TFCP2 / Fold change vs veh, TFCP2 / RFU, GMCL1 /// GMCL1P1 / Fold change vs veh, GMCL1 /// GMCL1P1 / RFU, AEBP2 / Fold change vs veh, AEBP2 / RFU, SNHG1 /// SNORD22 /// SNORD25 /// SNORD26 /// SNORD27 /// SNORD28 /// SNORD29 /// SNORD31 / Fold change vs veh, SNHG1 /// SNORD22 /// SNORD25 /// SNORD26 /// SNORD27 /// SNORD28 /// SNORD29 /// SNORD31 / Fold change (Aza/veh), C12orf56 (ProbeSet 11735607_a_at) / Fold change (ACY-1035/veh), C12orf56 (ProbeSet 11735607_a_at) / Fold change (Aza/veh), FGFR1OP (ProbeSet 11751329_s_at) / Fold change (ACY-1035/veh), FGFR1OP (ProbeSet 11751329_s_at) / Fold change (Aza/veh), VPS36 (ProbeSet 11739960_a_at) / Fold change (ACY-1035/veh), VPS36 (ProbeSet 11739960_a_at) / RFU SYPL1 (11715823_x_at) / Fold change /veh SYPL1 (11715823_x_at) / RFU IGFBP7 (11715501_s_at) / Fold change /veh IGFBP7 (11715501_s_at) / RFU REEP3 (11722064_at) / Fold change /veh REEP3 (11722064_at) / RFU IGLL1 (11728026_x_at) / Fold change /veh IGLL1 (11728026_x_at): dose or concentration left out as unconfirmed
Details: MV-4-11 cells, 48 hours

## Nc1ncn([C@@H]2O[C@H](CO)[C@@H](O)[C@H]2O)c(=O)n1 [azacitidine]
  Fold change /veh HIST1H1D (11736915_at): 1.16
